# Test results taken from US11364248B2 (AMGEN INC., priority 2017, dated 2022).
# Test system: OPM-2
# Test: Cell Viability Assay (OPM-2 10 FBS)
# Format: cell-based, human
# Details: OPM-2 cells, 16 h, CellTiter-Glo, read-out: OPM-2 10% FBS IC50 IP
# Method: Cell Viability Assay (OPM-2 10 FBS)
# The human multiple myeloma cell line, OPM-2, was cultured in complete growth medium containing RPMI 1640 and 10% fetal bovine serum (FBS). Cells were seeded into 384-well plates at 3000 cells/well density in complete growth medium containing 10% FBS, and incubated for 16 h with serially diluted test compounds in a 37° C. incubator with 5% CO2. Cell viability was tested using CellTiter-Glo® assay (Promega, Madison, Wis.) according to the manufacturer recommendations. Luminescence was determined using an EnVision® Multilabel plate reader 25 min after the addition of detection reagent. IC50 values were then calculated with Xlfit using a logistical 4-parameter fit model in GraphPad Prism (GraphPad Software, San Diego, Calif.) or in Genedata Screener® (Genedata, Basel, Switzerland).
row,SMILES,IC50 [nM]
1,"C[C@@H]1[C@@H](C)CCC[C@H]([C@H]2OC[C@@H](N(C)C)CO2)[C@@H]2CC[C@H]2CN2C[C@@]3(CCCc4cc(Cl)ccc43)COc3ccc(nc32)C(=O)NS1(=O)=O (stereo in doubt) [Example 93, (1S,3′R,6′R,7′S,11′S,12′R)-6-chloro-7′-(cis-5-(dimethylamino)-1,3-dioxan-2-yl)-11′,12′-dimethyl-3,4-dihydro-2H,15′H-spiro[naphthalene-1,22′-[20]oxo[13]thia[1,14,25]triazatetracyclo [14.7.2.0~3,6~.0~19,24~]pentacosa[16,18,24]trien]-15′-one 13′,13′-dioxide]",34
2,"COC1CN([C@H]2CO[C@@H]([C@H]3CCC[C@H](C)[C@@H](C)S(=O)(=O)NC(=O)c4ccc5c(c4)N(C[C@@H]4CC[C@H]43)C[C@@]3(CCCc4cc(Cl)ccc43)CO5)OC2)C1 [Example 54, (1S,3′R,6′R,7′S,11′S,12′R)-6-chloro-7′-(cis-5-(3-methoxy-1-azetidinyl)-1,3-dioxan-2-yl)-11′,12′-dimethyl-3,4-dihydro-2H,15′H-spiro[naphthalene-1,22′-[20]oxa[13]thia[1,14]diazatetracyclo [14.7.2.0~3,6~.0~19,24~]pentacosa[16,18,24]trien]-15′-one 13′,13′-dioxide]",547
3,"COC1CN([C@H]2CO[C@@H]([C@H]3CCC[C@H](C)[C@@H](C)S(=O)(=O)NC(=O)c4ccc5c(c4)N(C[C@@H]4CC[C@H]43)C[C@@]3(CCCc4cc(Cl)ccc43)CO5)OC2)C1 [Example 53, (1S,3′R,6′R,7′S,11′S,12′R)-6-chloro-7′-(cis-5-(3-methoxy-1-azetidinyl)-1,3-dioxan-2-yl)-11′,12′-dimethyl-3,4-dihydro-2H,15′H-spiro[naphthalene-1,22′-[20]oxa[13]thia[1,14]diazatetracyclo [14.7.2.0~3,6~.0~19,24~]pentacosa[16,18,24]trien]-15′-one 13′,13′-dioxide]",184
4,"COCC[C@@H]1[C@@H](C)CCC[C@H]([C@H]2OC[C@@H](N(C)C)CO2)[C@@H]2CC[C@H]2CN2C[C@@]3(CCCc4cc(Cl)ccc43)COc3ccc(cc32)C(=O)NS1(=O)=O [Example 82, (1S,3′R,6′R,7′S,11′S,12′R)-6-chloro-7′-(cis-5-(dimethylamino)-1,3-dioxan-2-yl)-12′-(2-methoxyethyl)-11′-methyl-3,4-dihydro-2H,15′H-spiro[naphthalene-1,22′-[20]oxa[13]thia[1,14]diazatetracyclo [14.7.2.0~3,6~.0~19,24~]pentacosa[16,18,24]trien]-15′-one 13′,13′-dioxide]",33
5,"C[C@@H]1[C@@H](C)CCC[C@H]([C@H]2OC[C@@H](N3CC(F)(F)C3)CO2)[C@@H]2CC[C@H]2CN2C[C@@]3(CCCc4cc(Cl)ccc43)COc3ccc(cc32)C(=O)NS1(=O)=O [Example 32, (1S,3′R,6′R,7′S,11′S,12′R)-6-chloro-7′-(cis-5-(3,3-difluoro-1-azetidinyl)-1,3-dioxan-2-yl)-11′,12′-dimethyl-3,4-dihydro-2H,15′H-spiro[naphthalene-1,22′-[20]oxa[13]thia[1,14]diazatetracyclo [14.7.2.0~3,6~.0~19,24~]pentacosa[16,18,24]trien]-15′-one 13′,13′-dioxide]",1940
6,"C[C@@H]1CS(=O)(=O)NC(=O)c2ccc3c(c2)N(C[C@@H]2CC[C@H]2[C@@H]([C@H]2OC[C@@H](N(C)C)CO2)CC[C@@H]1C)C[C@@]1(CCCc2cc(Cl)ccc21)CO3 [Example 85, (1S,3′R,6′R,7′S,10′S,11′S)-6-chloro-7′-(cis-5-(dimethylamino)-1,3-dioxan-2-yl)-10′,11′-dimethyl-3,4-dihydro-2H,15′H-spiro[naphthalene-1,22′-[20]oxa[13]thia[1,14]diazatetracyclo [14.7.2.0~3,6~.0~19,24~]pentacosa[16,18,24]trien]-15′-one 13′,13′-dioxide]",1090
